Target: 5-hydroxytryptamine receptor 2A (Homo sapiens, UniProt P28223)
Assay: [125I]DOI Radioligand Binding Assay: Radioligand binding assays for human 5-HT2A receptor was conducted using the 5-HT2 agonist [125I]DOI as radioligand. To define nonspecific binding, 10 μM DOI was used for all assays. For competitive binding studies, 0.5 nM [125I]DOI was used and compounds were assayed over a range of 0.01 nM to 10 μM. Assays were conducted in a total volume of 200 μl in 96-well Perkin Elmer GF/C filter plates in assay buffer (50 mM Tris-HCl, pH 7.4, 0.5 mM EDTA, 5 mM MgCl2, and 10 μM pargyline). Assay incubations were performed for 60 min at room temperature and were terminated by rapid filtration under vacuum pressure of the reaction mixture over Whatman GF/C glass fiber filters presoaked in 0.5% PEI using a Brandell cell harvestor. Filters were then washing several times with ice-cold wash buffer (50 mM Tris-HCl, pH 7.4). Plates were then dried at room temperature and counted in a Wallac microBeta scintillation counter.

Sequence of 5-hydroxytryptamine receptor 2A (P28223 whole entry): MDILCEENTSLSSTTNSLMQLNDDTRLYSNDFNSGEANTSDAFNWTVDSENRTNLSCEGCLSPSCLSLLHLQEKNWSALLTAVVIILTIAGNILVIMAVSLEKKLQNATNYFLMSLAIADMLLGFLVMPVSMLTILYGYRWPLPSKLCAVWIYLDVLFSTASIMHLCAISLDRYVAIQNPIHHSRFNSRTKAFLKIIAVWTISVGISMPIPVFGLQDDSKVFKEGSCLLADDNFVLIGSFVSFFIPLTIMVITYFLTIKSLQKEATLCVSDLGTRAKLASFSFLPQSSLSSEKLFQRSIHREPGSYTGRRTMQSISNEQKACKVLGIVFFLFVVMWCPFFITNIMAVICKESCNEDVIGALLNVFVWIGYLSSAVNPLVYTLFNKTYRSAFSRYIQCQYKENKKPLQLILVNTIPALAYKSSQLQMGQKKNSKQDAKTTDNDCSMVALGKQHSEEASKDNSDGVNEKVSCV

Point of comparison: `CCC(C)OC(=O)Nc1ccc(OCCN2CCCC2)c(-c2c(Br)cnn2C)c1` (stereo not drawn), IC50 1.1 nM. Against it:
- Cn1nccc1-c1cc(NC(=O)NCc2ccc(Cl)cc2)ccc1OCCN1CCCC1 — 9.3-fold higher, 10.2 nM
- Cn1nccc1-c1cc(NC(=O)Cc2ccc(F)cc2)ccc1OCCN1CCCCC1 — 12-fold higher, 13.7 nM
